Assay results reported in ChEMBL document CHEMBL1201862, “PubChem BioAssay data set” (2004).
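Compound exposure: 48 hours, 5 concentrations, 96-well plates. GI50 = concentration required for 50% inhibition of growth.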 Active and inactive are the calls of the source. No stated cut-off is given here; in the data, active = GI50 up to about 1.1 µM and inactive = higher.

Key:
Assay in all cases: DTP human tumour cell line panel, 48 h
CAKI-1 = tested on: CAKI-1
DU-145 = tested on: DU-145
HCT-116 = tested on: HCT-116
HCT-15 = tested on: HCT-15
MDA-N = tested on: MDA-N
MOLT-4 = tested on: MOLT-4
NCI-H460 = tested on: NCI-H460
NCI/ADR-RES = tested on: NCI/ADR-RES
OVCAR-5 = tested on: OVCAR-5
SF-268 = tested on: SF-268
SF-539 = tested on: SF-539
SK-MEL-5 = tested on: SK-MEL-5
SN12C = tested on: SN12C
SR = tested on: SR
T47D = tested on: T47D
UACC-62 = tested on: UACC-62
UO-31 = tested on: UO-31
OVCAR-8 = tested on: OVCAR-8
A498 = tested on: A498

Row | Compound | GI50 (CAKI-1) | GI50 (DU-145) | GI50 (HCT-116) | GI50 (HCT-15) | GI50 (MDA-N) | GI50 (MOLT-4) | GI50 (NCI-H460) | GI50 (NCI/ADR-RES) | GI50 (OVCAR-5) | GI50 (SF-268) | GI50 (SF-539) | GI50 (SK-MEL-5) | GI50 (SN12C) | GI50 (SR) | GI50 (T47D) | GI50 (UACC-62) | GI50 (UO-31) | GI50 (OVCAR-8) | GI50 (A498)
1 | CC(C)=CCC/C(C)=C/CCC(C(=O)COCc1ccccc1)P1(=O)OC(C)(C)CN1C(C)(C)C (stereo unspecified) | > 100 µM (inactive) | 81.7 µM (inactive) | 33.1 µM (inactive) | 48.6 µM | > 100 µM (inactive) | 15.9 µM (inactive) | 52.2 µM (inactive) | 31.5 µM (inactive) | > 100 µM (inactive) | 33.1 µM (inactive) | > 100 µM (inactive) | 47.6 µM (inactive) | > 100 µM (inactive) | 21.8 µM (inactive) | 31.8 µM (inactive) | > 100 µM (inactive) | 50.4 µM (inactive) |  | 
2 | C=C1c2ccccc2C(=O)c2c1c1c(C(=O)OC)c(O)ccc1n2Cc1ccccc1 | 0.407 µM (active) | 0.242 µM (active) | 0.557 µM (active) | 0.232 µM | 0.32 µM (active) | 0.219 µM (active) | 0.908 µM (active) | 0.235 µM (active) | 1.1 µM (active) | 0.175 µM (active) | 0.228 µM (active) | 0.7 µM (active) | 0.312 µM (active) | 0.132 µM (active) | 0.653 µM (active) | 0.284 µM (active) | 0.512 µM (active) | 0.245 µM (active) | 
3 | CC(=N/N=C/c1ccccn1)/C(C)=N/N=C(C)/C(C)=N/N=C(C)/C(C)=N/N=C(C)/C(C)=N\N=C\c1ccccn1 | > 100 µM (inactive) | > 100 µM (inactive) | > 100 µM (inactive) | > 100 µM | > 100 µM (inactive) |  | > 100 µM (inactive) | > 100 µM (inactive) | > 100 µM (inactive) | > 100 µM (inactive) | > 100 µM (inactive) | > 100 µM (inactive) | > 100 µM (inactive) | > 100 µM (inactive) | > 100 µM (inactive) |  | > 100 µM (inactive) | > 100 µM (inactive) | > 100 µM (inactive)
4 | COc1cccc(-c2cc(=O)c3ccccc3o2)c1N | > 100 µM (inactive) | > 100 µM (inactive) | 52 µM (inactive) | > 100 µM | 24.4 µM (inactive) | > 100 µM (inactive) | > 59 µM (inactive) | 33 µM (inactive) | > 91 µM (inactive) | 61.2 µM (inactive) | 63.5 µM (inactive) | 42.8 µM (inactive) | > 100 µM (inactive) | > 100 µM (inactive) | 11.9 µM (inactive) | 5.27 µM (inactive) | 36.3 µM (inactive) | 53 µM (inactive) | 
5 | CC(C)CCC(=O)c1ccoc1 [PERILLAKETONE] | > 100 µM (inactive) | > 100 µM (inactive) | > 100 µM (inactive) | > 100 µM | > 100 µM (inactive) | > 100 µM (inactive) | > 100 µM (inactive) | > 100 µM (inactive) | > 100 µM (inactive) | > 100 µM (inactive) | > 100 µM (inactive) | > 100 µM (inactive) | > 100 µM (inactive) | > 100 µM (inactive) | > 100 µM (inactive) | > 100 µM (inactive) | > 100 µM (inactive) | > 100 µM (inactive) | 
6 | O=[N+]([O-])c1ccc(S(=O)(=O)n2c3ccc(Br)cc3c3nc4ccccc4nc32)cc1 | > 100 µM (inactive) | > 100 µM (inactive) | > 100 µM (inactive) | > 100 µM | > 100 µM (inactive) | > 100 µM (inactive) | > 100 µM (inactive) | > 100 µM (inactive) | > 100 µM (inactive) | > 100 µM (inactive) |  | > 100 µM (inactive) | > 100 µM (inactive) | > 100 µM (inactive) | > 100 µM (inactive) | > 100 µM (inactive) | > 100 µM (inactive) | > 100 µM (inactive) | > 100 µM (inactive)
